The values below come from patent US12421253B2 (Mirati Therapeutics, Inc., priority 2020, dated 2025).

The target of test [1] is KRas^G12C (Homo sapiens, UniProt P01116, G12C). Put plainly: biochemical.
Procedure: (§1) The ability of a compound to bind to KRas was measured using a TR-FRET displacement assay. […] After a 60-minute incubation at room temperature, the reaction was measured using a BMG LABTECH CLARIO star Plus via TR-FRET. […] The POC values were fit to a 4-parameter IC50 equation and the IC50 value reported.
Test [2] has as its target T1, KRas^WT (Homo sapiens, UniProt P01116).
T1 construct: […]; biotin (biotinylated); purchased Accelegan Inc
Put plainly: KRas binding assay (TR-FRET displacement of Cy5 labelled tracer). On the technique in general: TR-FRET usually uses a lanthanide donor and a delayed reading to cut background.
Procedure: as §1

Test [3] concerns the target T2, KRas^G12S (Homo sapiens, UniProt P01116, G12S).
T2 construct: […]; biotin (biotinylated); purchased Accelegan Inc
The description is as above.
Procedure: as §1

The target in test [4] is KRas^Q61H (Homo sapiens, UniProt P01116, Q61H). Put plainly: biochemical.
Procedure: as §1
For test [5], the target named is T3, KRas^G12D (Homo sapiens, UniProt P01116, G12D).
T3 construct: […]; biotin (biotinylated); purchased Accelegan Inc
Put plainly: KRas binding assay (TR-FRET displacement of Cy5 labelled tracer).
Procedure: as §1

Test [6] concerns the target T4, KRas^G12A (Homo sapiens, UniProt P01116, G12A).
T4 construct: […]; biotin (biotinylated); purchased Accelegan Inc
Described as above.
Procedure: as §1

The target in test [7] is T5, KRas^G12R (Homo sapiens, UniProt P01116, G12R).
T5 construct: […]; biotin (biotinylated); purchased Accelegan Inc
Described as above.
Procedure: as §1

For test [8], the target named is T6, KRas^G12V (Homo sapiens, UniProt P01116, G12V).
T6 construct: […]; biotin (biotinylated); purchased Accelegan Inc
The test is described as above.
Procedure: as §1

Test [9] has as its target KRas^G13D (Homo sapiens, UniProt P01116, G13D). Put plainly: biochemical.
Procedure: as §1

T3 sequence (P01116 1-169 isoform P01116-2 G12D): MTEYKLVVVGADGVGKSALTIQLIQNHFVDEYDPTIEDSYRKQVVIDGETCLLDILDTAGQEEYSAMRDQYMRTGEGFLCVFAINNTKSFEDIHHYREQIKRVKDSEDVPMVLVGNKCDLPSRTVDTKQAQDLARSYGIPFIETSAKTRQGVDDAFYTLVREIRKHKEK
T2 sequence (P01116 1-169 isoform P01116-2 G12S): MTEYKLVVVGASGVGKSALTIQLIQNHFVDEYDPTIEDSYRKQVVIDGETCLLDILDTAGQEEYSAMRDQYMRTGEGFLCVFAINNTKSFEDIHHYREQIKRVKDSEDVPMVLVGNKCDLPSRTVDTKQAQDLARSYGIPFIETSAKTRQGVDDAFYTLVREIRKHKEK
T6 sequence (P01116 1-169 isoform P01116-2 G12V): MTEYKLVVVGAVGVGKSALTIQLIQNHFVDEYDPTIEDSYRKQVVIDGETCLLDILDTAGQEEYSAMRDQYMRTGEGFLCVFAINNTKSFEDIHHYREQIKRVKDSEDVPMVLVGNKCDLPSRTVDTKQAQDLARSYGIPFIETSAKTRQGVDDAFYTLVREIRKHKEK
Chain of KRas^Q61H (P01116 1-169 isoform P01116-2 Q61H): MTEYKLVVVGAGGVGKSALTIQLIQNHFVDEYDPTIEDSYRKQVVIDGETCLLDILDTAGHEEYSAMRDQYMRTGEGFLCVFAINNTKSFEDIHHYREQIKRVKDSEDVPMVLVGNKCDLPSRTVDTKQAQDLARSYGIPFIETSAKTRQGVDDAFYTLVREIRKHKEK
Chain of KRas^G12C (P01116 1-169 isoform P01116-2 G12C): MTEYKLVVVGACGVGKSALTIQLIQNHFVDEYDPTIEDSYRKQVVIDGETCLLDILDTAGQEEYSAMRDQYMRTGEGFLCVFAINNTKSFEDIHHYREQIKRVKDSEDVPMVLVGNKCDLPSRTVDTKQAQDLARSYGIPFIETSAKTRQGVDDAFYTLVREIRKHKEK
T4 sequence (P01116 1-169 isoform P01116-2 G12A): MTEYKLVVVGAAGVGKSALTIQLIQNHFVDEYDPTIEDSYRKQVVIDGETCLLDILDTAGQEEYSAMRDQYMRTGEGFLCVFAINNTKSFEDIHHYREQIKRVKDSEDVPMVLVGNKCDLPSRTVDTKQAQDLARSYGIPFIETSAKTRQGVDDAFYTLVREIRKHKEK
Chain of KRas^G13D (P01116 1-169 isoform P01116-2 G13D): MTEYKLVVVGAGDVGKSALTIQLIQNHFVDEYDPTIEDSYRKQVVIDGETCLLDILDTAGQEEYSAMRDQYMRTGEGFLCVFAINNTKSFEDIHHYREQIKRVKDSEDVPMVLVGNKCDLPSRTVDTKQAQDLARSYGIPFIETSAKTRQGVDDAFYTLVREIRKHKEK
T1 sequence (P01116 1-169 isoform P01116-2): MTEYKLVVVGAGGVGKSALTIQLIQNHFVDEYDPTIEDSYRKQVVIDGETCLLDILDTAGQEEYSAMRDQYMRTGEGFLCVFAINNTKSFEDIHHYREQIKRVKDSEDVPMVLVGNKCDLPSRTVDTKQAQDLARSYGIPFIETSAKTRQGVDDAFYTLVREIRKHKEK
T5 sequence (P01116 1-169 isoform P01116-2 G12R): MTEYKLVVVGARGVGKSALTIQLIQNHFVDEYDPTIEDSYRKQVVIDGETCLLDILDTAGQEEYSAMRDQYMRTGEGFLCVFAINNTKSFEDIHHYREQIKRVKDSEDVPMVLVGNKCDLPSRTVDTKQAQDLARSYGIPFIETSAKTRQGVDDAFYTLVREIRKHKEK

Broadly, the IC50 is the concentration that gives 50% inhibition. A lower IC50 goes with inhibition by little substance. For the compound `CCc1cccc2cccc(N3CCc4c(nc(OCC56CCCN5CCC6)nc4N4CCCCCCC4)C3)c12` [Example 54, 4-(azocan-1-yl)-7-(8-ethylnaphthalen-1-yl)-2-((hexahydro-1H-pyrrolizin-7a-yl)methoxy)-5,6,7,8-tetrahydropyrido[3,4-d]pyrimidine], the IC50 in [1] amounted to 755 nM; in test [2] it was 943 nM; in test [3], 924 nM; in [4], 1230 nM; in test [5], 1460 nM; in test [6], 767 nM. Moreover, the IC50 came out at 663 nM in [7], 707 nM in test [8] and 1080 nM in test [9].

For `CCc1cccc2cccc(N3CCc4c(nc(OCC56CCCN5CCC6)nc4NC4CC5CC5C4)C3)c12` (stereo not drawn) [Example 170, N-(bicyclo[3.1.0]hexan-3-yl)-7-(8-ethylnaphthalen-1-yl)-2-((tetrahydro-1H-pyrrolizin-7a(5H)-yl)methoxy)-5,6,7,8-tetrahydropyrido[3,4-d]pyrimidin-4-amine], the IC50 in [1] is 15100 nM; in test [2] it was 17000 nM; in test [3], 16400 nM; in [4], 17000 nM; in test [5] it was 25000 nM; in [6], 27900 nM. The IC50 is 11900 nM in test [7], 5870 nM in test [8] and 16400 nM in test [9].

With `CCc1cccc2cccc(N3CCc4c(nc(OCC56CCCN5CCC6)nc4N4CCCC(c5nc(N)n(C)n5)C4)C3)c12` (stereo not drawn) [Example 84, 3-(1-(7-(8-ethylnaphthalen-1-yl)-2-((tetrahydro-1H-pyrrolizin-7a(5H)-yl)methoxy)-5,6,7,8-tetrahydropyrido[3,4-d]pyrimidin-4-yl)piperidin-3-yl)-1-methyl-1H-1,2,4-triazol-5-amine], the IC50 in test [1] was found to be 161 nM; in test [2] it was 838 nM; in test [3], 351 nM; in test [4], 734 nM; in test [5] it was 2110 nM; in test [6], 215 nM. Moreover, the IC50 is 104 nM in [7], 291 nM in [8] and 696 nM in [9].

As for `CCc1cccc2cccc(N3CCc4c(nc(OCC56CCCN5CCC6)nc4N4CCCC(c5nc(=O)[nH][nH]5)C4)C3)c12` (stereo not drawn) [Example 104, 5-(1-(7-(8-ethylnaphthalen-1-yl)-2-((tetrahydro-1H-pyrrolizin-7a(5H)-yl)methoxy)-5,6,7,8-tetrahydropyrido[3,4-d]pyrimidin-4-yl)piperidin-3-yl)-1,2-dihydro-3H-1,2,4-triazol-3-one], the IC50 is 894 nM in test [1]; 1590 nM in test [2]; 1120 nM in test [3]; 1980 nM in [4]; 4200 nM in test [5]; 755 nM in test [6]. The values for the IC50 in test [7], in [8] and in test [9] were 365 nM, 852 nM and 1800 nM, respectively.

As to `CCc1cccc2cccc(N3CCc4c(nc(OCC56CCCN5CCC6)nc4NC4CCNC(=O)C4)C3)c12` (stereo not drawn) [Example 153, 4-((7-(8-ethylnaphthalen-1-yl)-2-((tetrahydro-1H-pyrrolizin-7a(5H)-yl)methoxy)-5,6,7,8-tetrahydropyrido[3,4-d]pyrimidin-4-yl)amino)piperidin-2-one], the 50% inhibitory concentration (IC50) was found to be 3510 nM in test [1]; 8430 nM in test [2]; 4170 nM in test [3]; 8150 nM in [4]; 1730 nM in [5]; 7280 nM in test [6]. In addition, the IC50 in test [7] was 4660 nM; in test [8] it was 3360 nM; in test [9], 6440 nM.

On to `CCc1cccc2cccc(N3CCc4c(nc(OCC56CCCN5CCC6)nc4NCc4nnc(CSC)[nH]4)C3)c12` [Example 161, 7-(8-ethylnaphthalen-1-yl)-N-((5-((methylthio)methyl)-4H-1,2,4-triazol-3-yl)methyl)-2-((tetrahydro-1H-pyrrolizin-7a(5H)-yl)methoxy)-5,6,7,8-tetrahydropyrido[3,4-d]pyrimidin-4-amine], for which the IC50 came to 6790 nM in test [1]; 27400 nM in test [2]; 15000 nM in [3]; 21300 nM in test [4]; 7690 nM in [5]; 21700 nM in test [6]. In addition, the values for the IC50 in test [7], in test [8] and in test [9] were 14600 nM, 2740 nM and 25200 nM, respectively.

On to `CCc1cccc2cccc(N3CCc4c(nc(OCC56CCCN5CCC6)nc4N4CCC(CO)C(O)C4)C3)c12` (stereo not drawn) [Example 86, 1-(7-(8-ethylnaphthalen-1-yl)-2-((tetrahydro-1H-pyrrolizin-7a(5H)-yl)methoxy)-5,6,7,8-tetrahydropyrido[3,4-d]pyrimidin-4-yl)-4-(hydroxymethyl)piperidin-3-ol], for which the concentration for half-maximal inhibition (IC50) in [1] is 576 nM; in test [2], 158 nM; in test [3], 304 nM; in test [4] it was 194 nM; in [5] it was 1320 nM; in test [6], 225 nM. The IC50 is 465 nM in test [7], 498 nM in test [8] and 151 nM in test [9].

As for `CCc1cccc2cccc(N3CCc4c(nc(OCC56CCCN5CCC6)nc4N4CCCC(c5ncn[nH]5)C4)C3)c12` (stereo not drawn) [Example 53, 4-(3-(1H-1,2,4-triazol-5-yl)piperidin-1-yl)-7-(8-ethylnaphthalen-1-yl)-2-((hexahydro-1H-pyrrolizin-7a-yl)methoxy)-5,6,7,8-tetrahydropyrido[3,4-d]pyrimidine], the IC50 in test [1] was determined as 741 nM; in [2], 894 nM; in test [3] it was 854 nM; in [4], 1150 nM; in [5] it was 2720 nM; in [6], 548 nM. Moreover, the IC50 in [7] worked out at 397 nM; in test [8], 937 nM; in [9], 1180 nM.

As to `CCc1cccc2cccc(N3CCc4c(nc(OCC56CCCN5CCC6)nc4N4CCCC(c5nnc6n5CCC6)C4)C3)c12` (stereo not drawn) [Example 106, 4-(3-(6,7-dihydro-5H-pyrrolo[2,1-c][1,2,4]triazol-3-yl)piperidin-1-yl)-7-(8-ethylnaphthalen-1-yl)-2-((tetrahydro-1H-pyrrolizin-7a(5H)-yl)methoxy)-5,6,7,8-tetrahydropyrido[3,4-d]pyrimidine], the IC50 was determined as 369 nM in [1]; 1420 nM in test [2]; 752 nM in test [3]; 1460 nM in test [4]; 2230 nM in test [5]; 628 nM in test [6]. Also, the half-inhibitory concentration (IC50) in test [7] worked out at 1790 nM; in test [8], 1300 nM; in [9], 1070 nM.

`CCc1cccc2cccc(N3CCc4c(nc(OCC56CCCN5CCC6)nc4N4CCCCCC(S(C)(=O)=O)C4)C3)c12` (stereo not drawn) [Example 14, 7-(8-ethylnaphthalen-1-yl)-4-(3-(methylsulfonyl)azocan-1-yl)-2-((tetrahydro-1H-pyrrolizin-7a(5H)-yl)methoxy)-5,6,7,8-tetrahydropyrido[3,4-d]pyrimidine]: the IC50 in test [1] was determined as 173 nM; in test [2], 119 nM; in [3], 171 nM; in test [4] it was 135 nM; in test [5], 256 nM; in test [6], 145 nM. Besides, the figures for the IC50 in [7], in test [8] and in test [9] were 233 nM, 112 nM and 118 nM, respectively.

On to `CCc1cccc2cccc(N3CCc4c(nc(OCC56CCCN5CCC6)nc4NC4CC(=O)N(c5cnn(C)c5)C4)C3)c12` (stereo not drawn) [Example 126, 4-((7-(8-ethylnaphthalen-1-yl)-2-((tetrahydro-1H-pyrrolizin-7a(5H)-yl)methoxy)-5,6,7,8-tetrahydropyrido[3,4-d]pyrimidin-4-yl)amino)-1-(1-methyl-1H-pyrazol-4-yl)pyrrolidin-2-one], for which the IC50 is 2740 nM in test [1]; 4260 nM in [2]; 2910 nM in test [3]; 5450 nM in test [4]; 720 nM in test [5]; 5900 nM in test [6]. Further, the IC50 in test [7] stood at 3290 nM; in test [8], 2750 nM; in [9], 5680 nM.

In the case of `O=C1NC(=O)C2CN(c3nc(OCC45CCCN4CCC5)nc4c3CCN(c3cccc5cccc(F)c35)C4)CC12` (stereo not drawn) [Example 81, 5-(7-(8-fluoronaphthalen-1-yl)-2-((hexahydro-1H-pyrrolizin-7a-yl)methoxy)-5,6,7,8-tetrahydropyrido[3,4-d]pyrimidin-4-yl)tetrahydropyrrolo[3,4-c]pyrrole-1,3(2H,3aH)-dione], the half-inhibitory concentration (IC50) came out at 3560 nM in [1]; 3610 nM in test [2]; 1160 nM in test [3]; 5330 nM in test [4]; 5400 nM in test [5]; 4050 nM in test [6]. Further, the IC50 is 4020 nM in test [7], 3400 nM in test [8] and 3720 nM in test [9].

As to `CCc1cccc2cccc(N3CCc4c(nc(OCC56CCCN5CCC6)nc4N4CCC(c5[nH]ncc5N)C4)C3)c12` (stereo not drawn) [Example 46, 5-(1-(7-(8-ethylnaphthalen-1-yl)-2-((hexahydro-1H-pyrrolizin-7a-yl)methoxy)-5,6,7,8-tetrahydropyrido[3,4-d]pyrimidin-4-yl)pyrrolidin-3-yl)-1H-pyrazol-4-amine], the half-inhibitory concentration (IC50) stood at 401 nM in test [1]; 1820 nM in [2]; 611 nM in [3]; 2230 nM in test [4]; 6750 nM in test [5]; 448 nM in test [6]. Besides, the concentration for half-maximal inhibition (IC50) in [7] was 277 nM; in test [8] it was 232 nM; in [9], 2860 nM.
